# Results: patent publication US7759345B2, “Antitumoral derivatives of ET-743” (priority 2001, dated 2010)
# How the values were obtained:
# A-549 = experiment: Inhibition of cells growth by colorimetric assay (SRB), A-549; type: cell-based
# Procedure, shortened: (§1)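 Sulforhodamine B protein-stain readout (490 nm) after 48 h drug exposure, with GI, TGI and LC parameters calculated from triplicate means. Cells seeded at 5×10^3 per well, allowed 18 h drug-free attachment; dose range 10 to 10^−8 μg/ml, vehicle DMSO/EtOH/PBS (0.5:0.5:99).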
# SK-MEL-28 = experiment: Inhibition of cells growth by colorimetric assay (SRB), SK-MEL-28; type: cell-based
# Procedure, shortened: as §1
# HT-29 = experiment: Inhibition of cells growth by colorimetric assay (SRB), HT-29; type: cell-based
# Procedure, shortened: as §1
# SW620 = experiment: Inhibition of cells growth by colorimetric assay (SRB), SW620; type: cell-based
# Description: (§2) 2°.—Inhibition of Cells Growth by Colorimetric Assay.
# (§3) A colorimetric type of assay, using sulforhodamine B (SRB) reaction has been adapted for a quantitative measurement of cell growth and viability [following the technique described by Philip Skehan, et al. (1990), New colorimetric cytotoxicity assay for anticancer drug screening, J. Natl. Cancer Inst., 82:1107-1112]
# (§4) This form of the assay employs 96 well cell culture microplates of 9 mm diameter (Faircloth, 1988; Mosmann, 1983). Most of the cell lines are obtained from American Type Culture Collection (ATCC) derived from different human cancer types.
# (§5) Cells are maintained in RPMI 1640 10% FBS, supplemented with 0.1 g/l penicillin and 0.1 g/l streptomycin sulfate and then incubated at 37° C., 5% CO2 and 98% humidity. For the experiments, cells were harvested from subconfluent cultures using trypsin and resuspended in fresh medium before plating.
# (§6) Cells are seeded in 96 well microtiter plates, at 5×10^3 cells per well in aliquots of 195 μl medium, and they are allowed to attach to the plate surface by growing in drug free medium for 18 hours. Afterward, samples are added in aliquots of 5 μl in a ranging from 10 to 10^−8 μg/ml, dissolved in DMSO/EtOH/PBS (0.5:0.5:99). After 48 hours exposure, the antitumor effect are measured by the SRB methodology: cells are fixed by adding 50 μl of cold 50% (wt/vol) trichloroacetic acid (TCA) and incubating for 60 minutes at 4° C. Plates are washed with deionized water and dried. One hundred μl of SRB solution (0.4% wt/vol in 1% acetic acid) is added to each microtiter well and incubated for 10 minutes at room temperature. Unbound SRB is removed by washing with 1% acetic acid. Plates are air dried and bound stain is solubilized with Tris buffer. Optical densities are read on a automated spectrophotometric plate reader at a single wavelength of 490 nm.
# (§7) The values for mean+/−SD of data from triplicate wells are calculated. Some parameters for cellular responses can be calculated: GI=growth inhibition, TGI=total growth inhibition (cytostatic effect) and LC=cell killing (cytotoxic effect).
# (§8) Obtained results may predict the usefulness of a certain drug as a potential cancer treatment. For this technique, compounds which show GI50 values smaller than 10 μg/ml are selected to continue with further studies. GI50's data allow to predict that not only could a drug be cystostatic, but also it could have a potential in terms of tumor reduction.
# DU-145 = experiment: Inhibition of cells growth by colorimetric assay (SRB), DU-145; type: cell-based
# Procedure, shortened: as §1
# MCF-7 = experiment: Inhibition of cells growth by colorimetric assay (SRB), MCF-7; type: cell-based
# Description: as §2, §3, §4, §5, §6, §7, §8
# MDA-MB-231 = experiment: Inhibition of cells growth by colorimetric assay (SRB), MDA-MB-231; type: cell-based
# Description: as §2, §3, §4, §5, §6, §7, §8
# A-498 = experiment: Inhibition of cells growth by colorimetric assay (SRB), A-498; type: cell-based
# Description: as §2, §3, §4, §5, §6, §7, §8
# tumor cell culture = experiment: Bioassays for antitumor screening, cell line not given; type: cell-based; conditions: cell line not stated
# Text: Bioassays for Antitumor Screening
# The finality of these assays is to interrupt the growth of a “in vitro” tumor cell culture by means a continued exhibition of the cells to the sample to be testing.
# Description for Heart: (§9) Toxicity was asssessed by the methods reported in Toxicology in Vitro, 15 (2001) 571-577, J. Luber Narod et al.: “Evaluation of the use of in vitro methodolodies as tools for screening new compounds for potential in vivo toxicity”.
# Description for Kidney: as §9
# Description for Liver: as §9
# Description for Myelo: as §9
# Description for Skeletal: as §9
smiles,measurement,setting,value
COc1cc2c(cc1OC(=O)OC(C)(C)C)CCN[C@]21CS[C@@H]2c3c(OC(=O)OC(C)(C)C)c(C)c4c(c3[C@H](COC1=O)N1C2[C@H]2c3c(cc(C)c(OC)c3OC(=O)OC(C)(C)C)C[C@@H]([C@@H]1O)N2C)OCO4 (stereo partly drawn) [Compound 174],GI50,"A-549; Homo sapiens, A549, 48 h, SRB assay, 48 hours exposure, read-out: A-549 GI50",0.98 nM
same,LC50 (concentration for 50% cell killing),"A-549; Homo sapiens, A549, 48 h, read-out: A-549 LC50, SRB assay, 48 hours exposure",9.8 nM
same,A-549 TGI,"A-549; SRB assay, 48 hours exposure",2.94E-09
same,GI50,"SK-MEL-28; Homo sapiens, SK-MEL-28, 48 h, SRB assay, 48 hours exposure, read-out: MEL-28 GI50",1.96 nM
same,CC50,"SK-MEL-28; Homo sapiens, SK-MEL-28, 48 h, read-out: MEL-28 LC50, SRB assay, 48 hours exposure",9.8 nM
same,MEL-28 TGI,"SK-MEL-28; SRB assay, 48 hours exposure",4.90E-09
same,GI50,"HT-29; Homo sapiens, HT-29, 48 h, SRB assay, 48 hours exposure, read-out: HT-29 GI50",1.96 nM
same,LC50 (concentration for 50% cell killing),"HT-29; Homo sapiens, HT-29, 48 h, read-out: HT-29 LC50, SRB assay, 48 hours exposure",9.8 nM
same,HT-29 TGI,"HT-29; SRB assay, 48 hours exposure",6.86E-09
same,LC50,"SW620; Homo sapiens, SW-620, 48 h, read-out: SW-620 LC50",686 nM
same,GI50,"SW620; Homo sapiens, SW-620, SRB assay, 48 hours exposure, read-out: SW-620 GI50",0.98 nM
same,SW-620 TGI,"SW620; SRB assay, 48 hours exposure",6.86E-09
same,GI50,"DU-145; Homo sapiens, DU-145, 48 h, SRB assay, 48 hours exposure, read-out: DU-145 GI50",0.294 nM
same,CC50,"DU-145; Homo sapiens, DU-145, 48 h, read-out: DU-145 LC50, SRB assay, 48 hours exposure",3.92 nM
same,DU-145 TGI,"DU-145; SRB assay, 48 hours exposure",9.80E-10
same,GI50,"MCF-7; Homo sapiens, MCF7, 48 h, read-out: MCF GI50",3.92 nM
same,CC50,"MCF-7; Homo sapiens, MCF7, 48 h, read-out: MCF LC50",88.2 nM
same,MCF TGI,"MCF-7; SRB assay, 48 hours exposure",1.96E-08
same,CC50,"MDA-MB-231; Homo sapiens, MDA-MB-231, 48 h, read-out: MB-231 LC50",98 nM
same,GI50,"MDA-MB-231; Homo sapiens, MDA-MB-231, SRB assay, 48 hours exposure, read-out: MB-231 GI50",0.98 nM
same,MB-231 TGI,"MDA-MB-231; SRB assay, 48 hours exposure",5.88E-09
same,LC50,"A-498; Homo sapiens, A498, 48 h, read-out: A-498 LC50",9.8 nM
same,GI50,"A-498; Homo sapiens, A498, SRB assay, 48 hours exposure, read-out: A-498 GI50",1.96 nM
same,A-498 TGI,"A-498; SRB assay, 48 hours exposure",3.92E-09
same,antitumor activity (in words),tumor cell culture,very active (E-10)
same,Toxicity Data Liver,Liver,1.34E-08
same,Toxicity Data Heart,Heart,2.76E-08
same,Toxicity Data Myelo,Myelo,7.27E-08
same,Toxicity Data Skeletal,Skeletal,9.80E-07
same,Toxicity Data Kidney,Kidney,1.24E-08
